{"source": "PubChem BioAssay AID256", "about": "(DTP/NCI, 2004)", "test_system": "CD2F1 mice, L1210 leukemia ip, survival T/C", "experiment": "NCI In Vivo Anticancer Drug Screen. Data for tumor model L1210 Leukemia (intraperitoneal) in CD2F1 (CDF1) mice", "details": "endpoint: mean survival time, higher = longer survival", "how_it_was_run": "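Each value reflects a quotient of treated over vehicle control outcomes in mice with a transplanted tumor.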", "key": {"[1]": {"details": "dose: 100.0 mg/kg/injection, schedule: Q01DX001 (ip), vehicle: saline with Tween-80"}, "[2]": {"details": "dose: 200.0 mg/kg/injection, schedule: Q01DX001 (ip), vehicle: saline with Tween-80"}, "[3]": {"details": "dose: 100.0 mg/kg/injection, schedule: Q04DX003 (ip), vehicle: saline with Tween-80"}, "[4]": {"details": "dose: 200.0 mg/kg/injection, schedule: Q04DX003 (ip), vehicle: saline with Tween-80"}, "[5]": {"details": "dose: 400.0 mg/kg/injection, schedule: Q04DX003 (ip), vehicle: saline with Tween-80"}, "[6]": {"details": "dose: 100.0 mg/kg/injection, schedule: Q01DX009 (ip), vehicle: saline with Tween-80"}, "[7]": {"details": "dose: 200.0 mg/kg/injection, schedule: Q01DX009 (ip), vehicle: saline with Tween-80"}, "[8]": {"details": "dose: 400.0 mg/kg/injection, schedule: Q01DX009 (ip), vehicle: saline with Tween-80"}}, "note": "Where “and” joins values, the source holds several entries; their conditions need not be identical. Equal entries are not always repeated. Toxic doses and inconclusive results are not listed.", "data": [{"smiles": "Nc1nc(=O)n(CCCOc2ccccc2NC(=O)c2ccc(S(=O)(=O)F)cc2)cc1-c1ccc(Cl)c(Cl)c1", "values": [{"measurement": "T/C", "setting": "dose: 50.0 mg/kg/injection, schedule: Q01DX001 (ip), vehicle: saline with Tween-80", "value": "96 % of control"}, {"measurement": "T/C", "setting": "[1]", "value": "93 % of control"}, {"measurement": "T/C", "setting": "[2]", "value": "93 % of control"}]}, {"smiles": "Nc1nc(N)c2ncn(Cc3ccccc3)c2n1", "values": [{"measurement": "T/C", "setting": "[3]", "value": "98 % of control"}, {"measurement": "T/C", "setting": "[4]", "value": "93 % of control"}, {"measurement": "T/C", "setting": "[5]", "value": "100 % of control"}]}, {"smiles": "CCC1(CC)CCC(Br)C(Br)C1", "note": "(stereo not given)", "values": [{"measurement": "T/C", "setting": "[6]", "value": "94 % of control"}, {"measurement": "T/C", "setting": "[3]", "value": "95 % of control"}, {"measurement": "T/C", "setting": "[7]", "value": "94 % of control"}, {"measurement": "T/C", "setting": "[4]", "value": "98 % of control"}, {"measurement": "T/C", "setting": "[8]", "value": "89 % of control"}, {"measurement": "T/C", "setting": "[5]", "value": "93 % of control"}]}, {"smiles": "COC1=CCC(OC)=C(C)C1", "values": [{"measurement": "T/C", "setting": "[3]", "value": "93 % of control"}]}, {"smiles": "O=C(COc1ccccc1)NC(=S)Nc1ccc([N+](=O)[O-])cc1Cl", "values": [{"measurement": "T/C", "setting": "[6]", "value": "88 % of control and 89 % of control"}, {"measurement": "T/C", "setting": "dose: 100.0 mg/kg/injection, schedule: Q04DX002 (ip), vehicle: saline with Tween-80", "value": "95 % of control"}, {"measurement": "T/C", "setting": "[7]", "value": "93 % of control and 94 % of control"}, {"measurement": "T/C", "setting": "dose: 200.0 mg/kg/injection, schedule: Q04DX002 (ip), vehicle: saline with Tween-80", "value": "87 % of control"}, {"measurement": "T/C", "setting": "[8]", "value": "92 % of control and 93 % of control"}, {"measurement": "T/C", "setting": "dose: 400.0 mg/kg/injection, schedule: Q04DX002 (ip), vehicle: saline with Tween-80", "value": "91 % of control"}]}, {"smiles": "COc1cc2c(cc1C(C)C)CCC1C(C)(C(=O)O)CCCC21C", "note": "(stereo not given)", "values": [{"measurement": "T/C", "setting": "[1]", "value": "100 % of control"}, {"measurement": "T/C", "setting": "dose: 100.0 mg/kg/injection, schedule: Q01DX009 (ip), vehicle: saline sonified", "value": "95 % of control"}, {"measurement": "T/C", "setting": "[2]", "value": "97 % of control"}, {"measurement": "T/C", "setting": "dose: 200.0 mg/kg/injection, schedule: Q01DX009 (ip), vehicle: saline sonified", "value": "97 % of control"}, {"measurement": "T/C", "setting": "dose: 400.0 mg/kg/injection, schedule: Q01DX001 (ip), vehicle: saline with Tween-80", "value": "102 % of control"}, {"measurement": "T/C", "setting": "dose: 400.0 mg/kg/injection, schedule: Q01DX009 (ip), vehicle: saline sonified", "value": "96 % of control"}]}, {"smiles": "Cn1ccc(=Nc2ccc(NC(=O)c3ccc(N=c4ccn(C)c5ccc([N+](=O)[O-])cc45)cc3[N+](=O)[O-])cc2)cc1", "values": [{"measurement": "T/C", "setting": "dose: 12.5 mg/kg/injection, schedule: Q01DX009 (ip), vehicle: saline with Tween-80", "value": "101 % of control"}, {"measurement": "T/C", "setting": "dose: 25.0 mg/kg/injection, schedule: Q01DX009 (ip), vehicle: saline with Tween-80", "value": "113 % of control"}, {"measurement": "T/C", "setting": "dose: 50.0 mg/kg/injection, schedule: Q01DX009 (ip), vehicle: saline with Tween-80", "value": "119 % of control"}, {"measurement": "T/C", "setting": "[6]", "value": "119 % of control"}, {"measurement": "T/C", "setting": "[8]", "value": "95 % of control"}]}, {"smiles": "COc1ccc(-c2nnc(-c3ccc(OC)c(Cl)c3)nn2)cc1Cl", "values": [{"measurement": "T/C", "setting": "[3]", "value": "93 % of control"}, {"measurement": "T/C", "setting": "[4]", "value": "86 % of control"}]}, {"smiles": "CC[C@@]1(O)C(=O)OCc2c1cc1n(c2=O)Cc2cc3c(OC)cccc3nc2-1", "values": [{"measurement": "T/C", "setting": "dose: 0.13 mg/kg/injection, schedule: Q01DX009 (ip), vehicle: saline with Tween-80", "value": "105 % of control"}, {"measurement": "T/C", "setting": "dose: 0.25 mg/kg/injection, schedule: Q01DX009 (ip), vehicle: saline with Tween-80", "value": "111 % of control"}, {"measurement": "T/C", "setting": "dose: 1.0 mg/kg/injection, schedule: Q01DX009 (ip), vehicle: saline with Tween-80", "value": "101 % of control"}, {"measurement": "T/C", "setting": "dose: 1.0 mg/kg/injection, schedule: Q04DX003 (ip), vehicle: other", "value": "105 % of control"}, {"measurement": "T/C", "setting": "dose: 1.56 mg/kg/injection, schedule: Q01DX009 (ip), vehicle: saline with Tween-80", "value": "157 % of control"}, {"measurement": "T/C", "setting": "dose: 2.0 mg/kg/injection, schedule: Q04DX003 (ip), vehicle: other", "value": "155 % of control"}, {"measurement": "T/C", "setting": "dose: 2.25 mg/kg/injection, schedule: Q01DX009 (ip), vehicle: saline", "value": "158 % of control"}, {"measurement": "T/C", "setting": "dose: 3.13 mg/kg/injection, schedule: Q01DX009 (ip), vehicle: saline with Tween-80", "value": "86 % of control"}, {"measurement": "T/C", "setting": "dose: 3.8 mg/kg/injection, schedule: Q04DX003 (ip), vehicle: water", "value": "154 % of control"}, {"measurement": "T/C", "setting": "dose: 4.0 mg/kg/injection, schedule: Q04DX003 (ip), vehicle: other", "value": "153 % of control"}, {"measurement": "T/C", "setting": "dose: 7.5 mg/kg/injection, schedule: Q04DX003 (ip), vehicle: water", "value": "90 % of control"}, {"measurement": "T/C", "setting": "dose: 8.0 mg/kg/injection, schedule: Q04DX003 (ip), vehicle: other", "value": "164 % of control"}]}, {"smiles": "COc1ccc(CCNC(=O)CCN2C(=O)CCC2=O)cc1OC", "values": [{"measurement": "T/C", "setting": "[6]", "value": "98 % of control"}, {"measurement": "T/C", "setting": "dose: 100.0 mg/kg/injection, schedule: Q04DX003 (ip), vehicle: saline sonified", "value": "101 % of control"}, {"measurement": "T/C", "setting": "[7]", "value": "96 % of control"}, {"measurement": "T/C", "setting": "dose: 200.0 mg/kg/injection, schedule: Q04DX003 (ip), vehicle: saline sonified", "value": "101 % of control"}, {"measurement": "T/C", "setting": "[8]", "value": "100 % of control"}, {"measurement": "T/C", "setting": "dose: 400.0 mg/kg/injection, schedule: Q04DX003 (ip), vehicle: saline sonified", "value": "98 % of control"}]}]}
